pKi: −log10 of the molar value.
What was measured:
human 5-HT5A receptor = human 5-HT5A receptor (Homo sapiens (Human), UniProt P47898); test: Human 5-HT5A receptor binding inhibition test ([3H]5-CT); settings: [3H]5-CT binding, membranes of HEK293 cells expressing human 5-HT5A receptor; Ki calculated from IC50, Kd 4.95 nM
Experimental: An open reading frame (ORF; protein coding region) of human 5-HT5A receptor (Genbank AF498985) was cloned from a human hippocampus cDNA library and then inserted into a pCR2.1 vector (Invitrogen), and E. coli carrying the plasmid was cultured in a large scale. Thereafter, a full-length cDNA sequence of the human 5-HT5A receptor was analyzed and recombined into pcDNA3.1 vector (Invitrogen) as an expression vector, followed by a large scale culturing. The HEK293 cells (ATCC) as a human embryonic kidney-derived cell line were seeded, and the expression plasmid (1 μg) obtained as above was added thereto together with LIPOFECTAMINE 2000 (Invitrogen; 2 μl) to introduce genes into the HEK293 cells. Subsequently, expression cells were screened using Geneticin (G418 sulfate 500 μg/ml; KANTO KAGAKU) as a drug resistance marker. The recombinant cells expressing the genes prepared in this manner were cultured for 3 days in Dulbecco's Modified Eagle Medium (D-MEM, Sigma) supplemented with 10% fetal calf serum (FCS), 1% penicillin/streptomycin (Pc./Sm, Invitrogen), and 500 μg/ml G418. The above experimental procedure was performed according to a genetic engineering experiment manual of a known method (Sambrook, J. et al, “Molecular Cloning-A Laboratory manual”, Cold Spring Harbor Laboratory, NY, 1989) or the like, or the instruction attached to the reagents.
The HEK293 cells forced to express the human 5-HT5A receptor were cultured in a F500 plate and collected by being scarped with a scraper. After centrifugation, the sediment was collected, and an incubation buffer (50 mM Tris(HCl), pH 7.4, 10 mM MgSO4, 0.5 mM ethylenediaminetetraacetic acid (EDTA)) was added thereto. After homogenization, centrifugation was performed again, and the sediment was thoroughly suspended in the incubation buffer added thereto. After this procedure was repeated, the protein concentration was measured, thereby completing membrane preparation.
A test compound and 150 μM of a DMSO solution of 5-carboxamide tryptamine (5-CT) were added to a 96-well plate at 2 μl/well and suspended in the incubation buffer, and the HEK293 cells forced to express the human 5-HT5A receptor that were prepared at a concentration of 200 μg/ml were added thereto at 100 μl/well. The cells were incubated for 15 minutes at room temperature, and then a [^3H]5-CT solution (3 nM [^3H]5-CT, incubation buffer) was added thereto at 100 μl/well.
100 μl of the cell solution was separately dispensed into a liquid scintillation vial, and 2 ml of Aquasol II (registered trademark) was added thereto, followed by stirring. Thereafter, the radioactivity thereof was measured using a liquid scintillation counter. The cells were incubated for 60 minutes at 37° C. The reaction mixture was aspirated into a 96-well GF/C filter plate having undergone pretreatment with 0.2% polyethyleneimine, and washed 6 times with an ice-cold 50 mM Tris (pH 7.4) buffer. Thereafter, the GF/C filter plate was dried.
MicroScint™-PS (registered trademark) was added to the plate at 40 μl/well, and the radioactivity remaining on the GF/C filter plate was measured using TopCount.
In each test example, regarding the [^3H]5-CT binding inhibitory activity resulting from the test compound, the radioactivity at the time when only DMSO was added was regarded as 0%, and the radioactivity at the time when 1.5 μM 5-CT was added was regarded as 100% inhibition, thereby calculating an IC50 value. In addition, from a Kd value of [^3H]5-CT obtained from Scatchard analysis, a Ki value was calculated by the following formula. Ki=IC50/(1+concentration of ligand added/Kd(4.95 nM))

male ICR mouse [1] = test: MK-801-induced increase in level of physical activity (hyperactivity) of mouse; format: in vivo; settings: MK-801 0.3 mg/kg, significance P<0.05 vs vehicle
Experimental: (§1) The improvement effect of the compound of formula (I) on schizophrenia was evaluated by the measurement of the level of physical activity reduced by the administration of the compound, in a model having symptoms induced by methamphetamine (hereinafter, abbreviated to MAP) and MK-801.
(§2) The animals were taken out of a breeding cage, and the test compound was orally administered to the animal. Thereafter, the animals were put in the breeding cage. 30 minutes later, the animals were put in a cage for measurement, and the level of physical activity of the animals administered only with the test compound was measured. Another 30 to 90 minutes later, the animals were taken out, and drugs (MAP; 1.5 mg/kg or MK-801; 0.3 mg/kg dissolved in physiological saline) increasing the level of physical activity were respectively administered to the animals subcutaneously or intraperitoneally. The level of physical activity for a certain period of time (60 minutes) was measured using an instrument measuring a level of physical activity (CompACT AMS, MUROMACHI KIKAI CO., LTD.) by an infrared sensor.
For the normal mouse (mouse administered with physiological saline) and the mouse administered with the medication increasing the level of physical activity, Student's T test was performed in the respective intervals to judge the effect. For the group administered with the test compound, Dunnett's T test was performed for the comparison with a vehicle group, whereby the effect of the compound was tested. When there was a significant difference (P<0.05), the compound was judged to be effective.

male ddy mouse = test: Scopolamine-induced spontaneous alternation behavior in mouse (Y-maze); format: in vivo; settings: scopolamine 0.5 mg/kg i.p., alternation rate, p<0.05 vs control
Experimental: The improvement effect of the compound of formula (I) on dementia and the cognitive disease of schizophrenia was evaluated by the known test method described above by using a short-term learning disability model.
10 to 30 minutes after the test compound was orally administered, scopolamine at 0.5 mg/kg or MK-801 (physiological saline for a normal group) at 0.15 mg/kg was intraperitoneally administered, and the test was performed 20 minutes after the administration. In addition, for a normal group (group administered with physiological saline) and a control group (group administered with scopolamine at 0.5 mg/kg or MK-801 at 0.15 mg/kg), a vehicle was orally administered when the test compound was administered.
The mouse was put into one end of an arm of a maze (Y-maze) having arms of the same length that extended in three directions. The mouse was allowed to freely explore for 8 minutes, and the number of entries into the arm for the 8 minutes was counted. Moreover, a case where the mouse consecutively entered three different arms was regarded as spontaneous alternation behavior, and a ratio of the number of times of such a behavior to the total entry number was regarded as alternation rate and calculated by the following formula. Alternation rate(%)=number of times of spontaneous alternation behavior/(total entry number−2)×100
When a significant difference (Student's T test) was observed between the normal group and the control group in the alternation rate (%), the learning disability was considered to be induced by the administration of scopolamine or MK-801. By performing Dunnette's test for comparing the test compound-administered groups with the control group, whether or not the test compound has an action […] was determined. In each test, p<0.10 was regarded as a trend, and p<0.05 was regarded as a significant difference.

male ICR mouse [2] = test: Methamphetamine (MAP)-induced increase in level of physical activity (hyperactivity) of mouse; format: in vivo; settings: oral dose 0.03 mg/kg; MAP 1.5 mg/kg; significance P<0.05 vs vehicle
Experimental: as §1, §2
For the normal mouse (mouse administered with physiological saline) and the mouse administered with the medication increasing the level of physical activity, Student's T test was performed in the respective intervals to judge the effect. […]

BALB/3T3 = test: Test for evaluating phototoxic effect (neutral red incorporation, UV irradiation); format: cell-based; settings: BALB/3T3, UV 70 minutes 1200 μW/cm2 vs non-irradiated
Experimental: 1) BALB/3T3 is peeled from a culture flask, and the cell number is counted.
2) The cell concentration is adjusted to 0.7×10^5 cells/ml, and the cells are seeded into a 96-well plate at 100 μl/well. PBS is added in an amount of 100 μl to a line of wells in both ends where the cells are not seeded.
3) The cells are cultured in a CO2 incubator for 1 day.
4) DMSO is added to a test compound, and the EBSS is further added thereto and dissolved. Ultrasonic waves, heating.
5) The compound solution of the highest concentration is transferred to the adjacent tube by 300 μL. This operation is repeated to prepare solutions having serial dilution concentration.
10) For each compound, compound solutions of 8-serial dilutions are dispensed at 100 μL/well.
11) The plates are allowed to stand still in a dark place (in a drawer of a lab bench) for 60 minutes.
12) Thereafter, the plates are irradiated with UV for 70 minutes (1200 μW/cm^2). The plate not irradiated is put in an empty box.
1) Neutral red (NR) is prepared in an amount of 50 μg/ml
3) The NR solution is dispensed at 100 μL/well.
4) Culturing is performed for 3 hours in a CO2 incubator.
8) The NR eluent is dispensed at 150 μl/well.
10) An absorbance at 540 nm is measured using a microplate reader.
According to the above test example 8, several compounds of formula (I) were evaluated. […] Herein, MPE refers to a value showing Mean Photo Effect. MPE can be calculated according to Equation 2 of the following document, for example.

human 5-HT5A receptor, sequence (P47898 whole entry): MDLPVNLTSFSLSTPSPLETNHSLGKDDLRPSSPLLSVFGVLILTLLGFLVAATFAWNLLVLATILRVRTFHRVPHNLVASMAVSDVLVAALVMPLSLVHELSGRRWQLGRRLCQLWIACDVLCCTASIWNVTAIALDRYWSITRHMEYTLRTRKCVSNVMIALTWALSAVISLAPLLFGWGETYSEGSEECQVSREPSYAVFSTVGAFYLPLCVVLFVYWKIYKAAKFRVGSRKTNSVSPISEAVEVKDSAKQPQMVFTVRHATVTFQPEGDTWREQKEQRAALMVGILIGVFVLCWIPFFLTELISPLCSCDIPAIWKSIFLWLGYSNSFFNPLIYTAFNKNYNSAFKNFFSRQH

| Structure (SMILES) | pKi (human 5-HT5A receptor) | other results |
| --- | --- | --- |
| NC(N)=NC(=O)N1CCc2c(F)ccc(-c3ncc(Cl)cc3F)c2C1 [Ex 4, 8-(5-chloro-3-fluoropyridin-2-yl)-N-(diaminomethylene)-5-fluoro-3,4-dihydroisoquinoline-2(1H)-carboxamide] | 8.37 |  |
| Cc1ccc(-c2ncc(F)cc2F)c2c1CCN(C(=O)N=C(N)N)C2 [Ex 60] | 8.41 | hyperactivity induced by MK-801 (male ICR mouse [1]; oral dose 0.03 mg/kg): significantly suppressed |
| NC(N)=NC(=O)N1CCc2c(F)ccc(-c3c(F)cccc3F)c2C1 [Ex 28] | 8.96 | hyperactivity induced by MK-801 (male ICR mouse [1]; oral dose 0.03 mg/kg): significantly suppressed; scopolamine-induced spontaneous alternation behavior (male ddy mouse; oral dose 0.003 mg/kg): significantly inhibited; hyperactivity induced by MAP (male ICR mouse [2]): significantly inhibited; MPE (Mean Photo Effect) (BALB/3T3): 0.00 |
| Cl.NC(N)=NC(=O)N1CCc2c(F)ccc(-c3ncc(F)cc3F)c2C1 [Ex 46] | 8.16 | hyperactivity induced by MK-801 (male ICR mouse [1]; oral dose 0.03 mg/kg): significantly suppressed; scopolamine-induced spontaneous alternation behavior (male ddy mouse; oral dose 0.003 mg/kg): significantly inhibited |
| NC(N)=NC(=O)N1CCc2c(Cl)ccc(-c3c(F)cncc3F)c2C1 [Ex 61] | 8.60 |  |
| NC(N)=NC(=O)N1CCc2cccc(-c3cc(F)c(F)cc3F)c2C1 [Ex 8] | 8.44 |  |
| NC(N)=NC(=O)N1CCc2c(Cl)ccc(-c3ccc(F)cc3F)c2C1 [Ex 44] | 8.57 |  |
| NC(N)=NC(=O)N1CCc2c(F)ccc(-c3c(F)cc(F)cc3F)c2C1 [Ex 26] | 9.17 | hyperactivity induced by MK-801 (male ICR mouse [1]; oral dose 0.03 mg/kg): significantly suppressed; scopolamine-induced spontaneous alternation behavior (male ddy mouse; oral dose 0.03 mg/kg): significantly inhibited; hyperactivity induced by MAP (male ICR mouse [2]): significantly inhibited; MPE (Mean Photo Effect) (BALB/3T3): 0.00 |
| NC(N)=NC(=O)N1CCc2c(Cl)ccc(-c3c(F)cc(F)cc3F)c2C1 [Ex 23] | 8.96 | hyperactivity induced by MK-801 (male ICR mouse [1]; oral dose 0.03 mg/kg): significantly suppressed; scopolamine-induced spontaneous alternation behavior (male ddy mouse; oral dose 0.003 mg/kg): significantly inhibited; MPE (Mean Photo Effect) (BALB/3T3): 0.00 |
| NC(N)=NC(=O)N1Cc2c(-c3ccc(F)cc3F)ccc(Cl)c2C(F)C1 (stereo not drawn) [Ex 49] | 8.18 |  |

Further lines, with some results ahead:

| pKi (human 5-HT5A receptor) | Structure (SMILES) | other results |
| --- | --- | --- |
| 8.43 | NC(N)=NC(=O)N1CCc2c(F)ccc(-c3cc(F)c(F)cc3F)c2C1 [Ex 79] |  |
| 9.07 | NC(N)=NC(=O)N1Cc2c(-c3ccc(F)cc3F)ccc(F)c2C2(CC2)C1 [Ex 80] |  |
| 9.06 | NC(N)=NC(=O)N1Cc2c(-c3c(F)cc(F)cc3F)ccc(F)c2C2(CC2)C1 [Ex 74] |  |
| 8.72 | NC(N)=NC(=O)N1CCc2c(F)ccc(-c3ncc(Cl)cc3Cl)c2C1 [Ex 62] | hyperactivity induced by MK-801 (male ICR mouse [1]; oral dose 0.01 mg/kg): significantly suppressed; scopolamine-induced spontaneous alternation behavior (male ddy mouse; oral dose 0.003 mg/kg): significantly inhibited |
| 9.02 | NC(N)=NC(=O)N1Cc2c(-c3ccccc3F)ccc(F)c2C2(CC2)C1 [Ex 86] |  |
| 9.12 | NC(N)=NC(=O)N1Cc2c(-c3c(F)cccc3F)ccc(F)c2C2(CC2)C1 [Ex 66] |  |
| 8.57 | NC(N)=NC(=O)N1Cc2c(C3CC3)ccc(F)c2C2(CC2)C1 [Ex 76] | hyperactivity induced by MK-801 (male ICR mouse [1]; oral dose 0.1 mg/kg): significantly suppressed |
| 8.80 | CC1CN(C(=O)N=C(N)N)Cc2c(-c3c(F)cccc3F)ccc(F)c21 (stereo not drawn) [Ex 69] |  |
| 8.38 | NC(N)=NC(=O)N1CCc2cccc(-c3ncc(F)cc3F)c2C1 [Ex 81] |  |
| 8.89 | NC(N)=NC(=O)N1Cc2c(-c3cc(F)c(F)cc3F)ccc(F)c2C2(CC2)C1 [Ex 78] | hyperactivity induced by MK-801 (male ICR mouse [1]; oral dose 0.1 mg/kg): significantly suppressed; scopolamine-induced spontaneous alternation behavior (male ddy mouse; oral dose 0.03 mg/kg): significantly inhibited |

From US8962612B2, “Tetrahydroisoquinoline derivative” (Astellas Pharma Inc, priority 2011, dated 2015)
